1 molecule from patent US20090149440A1, “NOVEL PYRIDONECARBOXYLIC ACID DERIVATIVES OR SALTS THEREOF” (priority 2004, published 2009) can be followed below.

Data set [1] concerns human serum proteins. As to the kind of experiment: Binding rate to proteins by ultrafiltration method. Type of data set: in vitro ADME. To be noted: 5 μg/mL, 37° C. for 30 minutes. The method, then:
Binding rate to proteins of the compounds shown in Table 3 was determined by ultrafiltration method. Specifically, a 0.5 mg/mL DMSO solution of each compound was diluted with human serum or a 0.4% phosphate buffer (pH: 7.4 containing 0.5% NaCl) to thereby prepare a 5 μg/mL solution. The human serum solution was incubated at 37° C. for 30 minutes and centrifugally filtrated through a filter (pore size: 0.22 μm). A portion of the serum filtrate and the phosphate buffer solution were applied to an HPLC system, and the peak area of the compound was measured. Binding rate of each compound to human serum proteins was calculated by the following equation 1: Binding rate (%)=(A−B)×100/A (equation 1) A: Peak area (in phosphate buffer) B: Peak area (in serum filtrate)

For data set [2], the system named is female ICR mice. As to the kind of experiment: Phototoxicity test: ear abnormalities after UV irradiation. The format is in vivo. Further details: key to Phototoxicity score: normal (0 point); slight erythema (score 1); medium erythema (score 2); serious erythema or edema (score 3). The settings on record: 40 mg/10 mL/kg intravenously, UV 320 to 400 nm for four hours. As for the experimental part:
Each test compound was intravenously administered (40 mg/10 mL/kg) to female ICR mice (5- to 6-weeks old), and the mice were irradiated with UV-rays (320 to 400 nm, 1.8 mW/cm^2/sec) for four hours. Abnormalities induced in the ear of each mouse were observed immediately after (0 hour), 24 hours after, and 48 hours after the irradiation. The abnormality was evaluated according to the following criteria: normal (0 point), slight erythema (score 1), medium erythema (score 2), and serious erythema or edema (score 3).

For data set [3], the system named is S. haemolytlcus 67. The data set is described as follows: Antibacterial activity, minimum inhibitory concentration (standard method of the Japanese Society of Chemotherapy). Type of data set: cell-based. As for the experimental part:
(§1) Minimum inhibitory concentration (MIC: μg/mL) of the compounds shown in Table 1 was determined according to the standard method of the Japanese Society of Chemotherapy (CHEMOTHERAPY 29(1), 76, 1981).

Data set [4] concerns M. luteus IFO12708. The data set is described as above. Type of data set: cell-based. The settings on record: Micrococcus luteus. As for the experimental part: as §1
Data set [5] relates to P. mirabilis IFO3849. The data set is described as above. Type of data set: cell-based. The settings on record: Proteus mirabilis. As for the experimental part: as §1
The subject of data set [6] is MRSA W44. Described as above. The settings on record: Staphylococcus aureus. The format is cell-based. The method, then: as §1

Values after ≈ are worked out from the molar mass of the structure shown.

As for `CCNC1CN(c2c(F)cc3c(=O)c(C(=O)O)cn(-c4nc(N)c(F)cc4F)c3c2Br)C1` [compound 2, 1-(6-amino-3,5-difluoropyridin-2-yl) 8-bromo-7-(3-ethylaminoazetidin-1-yl)-6-fluoro-4-oxo-1,4-dihydroquinolin-3-carboxylic acid], in data set [1], the “Binding rate to proteins” value was 62.8%. For the same molecule, the Phototoxicity incidence in data set [2] (0 hour after irradiation), in data set [2] (24 hours after irradiation) and in data set [2] (48 hours after irradiation) was 0/3 in each case. Besides, the Phototoxicity score in data set [2] (0 hour after irradiation), in data set [2] (24 hours after irradiation) and in data set [2] (48 hours after irradiation) was 0 throughout. Further, the MIC in data set [3] was found to be 8 µg/mL (≈ 15.6 µM); in data set [4], 0.25 µg/mL (≈ 0.488 µM); in data set [5] it was 0.25 µg/mL (≈ 0.488 µM); in data set [6], 0.06 µg/mL (≈ 0.117 µM).
